The record followed here is patent US20250129080A1, “COMPOSITIONS AND METHODS OF USING THE SAME FOR TREATMENT OF NEURODEGENERATIVE AND MITOCHONDRIAL DISEASE” (Mitokinin, Inc., priority 2021, published 2025).

Data set [1] relates to HeLa cells expressing mt-Keima and YFP-Parkin (HeLa MKYP). As to the kind of experiment: Human mt-Keima mitophagy assay. Format: cell-based. The conditions noted are these: Homo sapiens, HeLa, 16 hrs with compound, then FCCP/oligomycin for 6 hours, FACS. The protocol:
Briefly, HeLa cells expressing mt-Keima and YFP-Parkin (HeLa MKYP) were plated at 10,000 cells/well in 96 well plates along with compounds at various concentrations. Following 16 hrs of incubation, cells were treated with […] FCCP/oligomycin for 6 hours, then analyzed via FACS for the presence of mitochondria in lysosomes (as determined by an emissions spectrum shift from the pH-sensitive mt-Keima tag).

Data set [2] relates to SKOV3 cells. The data set is described as follows: In vitro mitosafety (glucose/galactose) assay. Format: cell-based. The following applies: highest mito-safe dose (gal/glc >0.80, IC20, SKOV3 cells, 20 hours) divided by mt-Keima EC50.
Method: Briefly, SKOV3 cells (ATCC HTB-77) were plated in DMEM (Corning 10-013-CV) medium containing 25 mM glucose or DMEM with no glucose (Gibco 11966-025) supplemented with 10 mMV galactose at 9,000 cells/well in 96 well plates (Corning costar 3610). 24 hrs later, compounds, in DMSO, were added at various concentrations to a final 0.1% DMSO for all wells. […] After a 15 minute incubation cellular ATP levels were read out using a Promega GloMax® DiscoverMicroplate Reader.
The ratio of relative CellTiter-Glo values from cells grown in galactose to cells grown in glucose was determined (gal/glc ratio). The gal/glc ratio vs concentration is then graphed, and non-linear regression is used to find the highest concentration of MTK compound at which gal/glc >0.80 (the “highest mito-safe dose”, or IC20).

One may read the EC50 as the concentration giving half of the maximal effect. As to `FC(F)(F)c1cc2c(N[C@H]3c4ccccc4OC[C@@H]3N3CCCC3)ncnc2[nH]1` [EP-0043440, N-((3R,4S)-3-(Pyrrolidin-1-Yl)Chroman-4-Yl)-6-(Trifluoromethyl)-7H-Pyrrolo[2,3-D]Pyrimidin-4-Amine], in data set [1], the concentration giving a half-maximal response (EC50) amounted to 372 nM. Moreover, the “Mito-Safety Index (highest safe dose/EC50)” value (“Mito-Safety Index” below) in data set [2] is given as 60.76.

`CO[C@@H]1CCN([C@H]2COc3cc(F)ccc3[C@@H]2Nc2ncnc3[nH]c(C(F)(F)F)cc23)C1` [EP-0043690, N-((3R,4S)-7-fluoro-3-((R)-3-methoxypyrrolidin-1-yl)chroman-4-yl)-6-(trifluoromethyl)-7H-pyrrolo[2,3-d]pyrimidin-4-amine]: the EC50 in data set [1] is 140 nM. Also, in data set [2], the “Mito-Safety Index” value amounted to 68.6.

In the case of `C[C@@H]1CCN([C@H]2COc3ccccc3[C@@H]2Nc2ncnc3[nH]c(C(F)(F)F)cc23)C1` [EP-0043821, N-((3R,4S)-3-((R)-3-methylpyrrolidin-1-yl)chroman-4-yl)-6-(trifluoromethyl)-7H-pyrrolo[2,3-d]pyrimidin-4-amine], the EC50 in data set [1] was 30 nM. Further, the “Mito-Safety Index” value in data set [2] came to 70.0.

Take `C[C@@H]1CN([C@H]2COc3c(F)cccc3[C@@H]2Nc2ncnc3[nH]c(C(F)(F)F)cc23)CCO1` [EP-0043827, N-((3R,4S)-8-fluoro-3-((R)-2-methylmorpholino)chroman-4-yl)-6-(trifluoromethyl)-7H-pyrrolo[2,3-d]pyrimidin-4-amine]: in data set [1], the concentration for a half-maximal effect (EC50) came out at 230 nM. Also, the “Mito-Safety Index” value in data set [2] stood at 108.7.

`C[C@@H]1CN([C@H]2COc3cc(F)ccc3[C@@H]2Nc2nccc3[nH]c(C(F)(F)F)cc23)CCO1` [EP-0043830, N-((3R,4S)-7-fluoro-3-((R)-2-methylmorpholino)chroman-4-yl)-2-(trifluoromethyl)-1H-pyrrolo[3,2-c]pyridin-4-amine]: the EC50 in data set [1] came out at 50 nM. The “Mito-Safety Index” value in data set [2] worked out at 118.0.

For the compound `FC(F)C1CN([C@H]2COc3ccccc3[C@@H]2Nc2ncnc3[nH]c(C(F)(F)F)cc23)C1` [EP-0043831, N-((3R,4S)-3-(3-(difluoromethyl)azetidin-1-yl)chroman-4-yl)-6-(trifluoromethyl)-7H-pyrrolo[2,3-d]pyrimidin-4-amine], the EC50 in data set [1] was determined as 600 nM. The “Mito-Safety Index” value in data set [2] came to 41.7.

Consider `Fc1ccc2c(c1)OC[C@H](N1CCOC3(CC3)C1)[C@H]2Nc1ncnc2[nH]c(C(F)(F)F)cc12` [EP-0043834, N-((3R,4S)-7-fluoro-3-(4-oxa-7-azaspiro[2.5]octan-7-yl)chroman-4-yl)-6-(trifluoromethyl)-7H-pyrrolo[2,3-d]pyrimidin-4-amine], for which the EC50 in data set [1] stood at 560 nM. For the same compound, in data set [2], the “Mito-Safety Index” value is given as 40.9.

With `Fc1ccc2c(c1)OC[C@H](N1CC[C@H](F)C1)[C@H]2Nc1ncnc2[nH]c(C(F)(F)F)cc12` [EP-0043839, N-((3R,4S)-7-fluoro-3-((S)-3-fluoropyrrolidin-1-yl)chroman-4-yl)-6-(trifluoromethyl)-7H-pyrrolo[2,3-d]pyrimidin-4-amine], the EC50 in data set [1] amounted to 480 nM. Moreover, the “Mito-Safety Index” value in data set [2] came out at 41.3.

As for `FC(F)C1CCN([C@H]2COc3ccccc3[C@@H]2Nc2ncnc3[nH]c(C(F)(F)F)cc23)C1` (stereo partly drawn) [EP-0043845, N-((3R,4S)-3-(3-(Difluoromethyl)Pyrrolidin-1-Yl)Chroman-4-Yl)-6-(Trifluoromethyl)-7H-Pyrrolo[2,3-D]Pyrimidin-4-Amine], the concentration giving a half-maximal response (EC50) in data set [1] turned out to be 40 nM. Also, the “Mito-Safety Index” value in data set [2] was 95.0.

For `C[C@@H]1CN([C@H]2COc3cc(F)ccc3[C@@H]2Nc2ncnc3c2cc(C(F)(F)F)n3C)CCO1` [EP-0043854, N-((3R,4S)-7-fluoro-3-((R)-2-methylmorpholino)chroman-4-yl)-7-methyl-6-(trifluoromethyl)-7H-pyrrolo[2,3-d]pyrimidin-4-amine], the EC50 in data set [1] was found to be 250 nM. The “Mito-Safety Index” value in data set [2] is 99.6.

In the case of `C[C@@H]1CN([C@H]2COc3cccc(F)c3[C@@H]2Nc2ncnc3[nH]c(C(F)(F)F)cc23)CCO1` [EP-0043859, N-((3R,4S)-5-fluoro-3-((R)-2-methylmorpholino)chroman-4-yl)-6-(trifluoromethyl)-7H-pyrrolo[2,3-d]pyrimidin-4-amine], the EC50 in data set [1] was 70 nM. For the same compound, the “Mito-Safety Index” value in data set [2] turned out to be 31.4.

In the case of `C[C@@H]1CN([C@H]2COc3ccc(F)cc3[C@@H]2Nc2ncnc3[nH]c(C(F)(F)F)cc23)CCO1` [EP-0043863, N-((3R,4S)-6-fluoro-3-((R)-2-methylmorpholino)chroman-4-yl)-6-(trifluoromethyl)-7H-pyrrolo[2,3-d]pyrimidin-4-amine], the EC50 in data set [1] came to 170 nM. Moreover, the “Mito-Safety Index” value in data set [2] came out at 40.0.

Regarding `FC(F)(F)O[C@H]1CCN([C@H]2COc3ccccc3[C@@H]2Nc2ncnc3[nH]c(C(F)(F)F)cc23)C1` [EP-0043865, N-((3R,4S)-3-((S)-3-(trifluoromethoxy)pyrrolidin-1-yl)chroman-4-yl)-6-(trifluoromethyl)-7H-pyrrolo[2,3-d]pyrimidin-4-amine], the EC50 in data set [1] was 90 nM. In addition, the “Mito-Safety Index” value in data set [2] was 44.4.

For the compound `F[C@H]1CCN([C@H]2COc3ccccc3[C@@H]2Nc2nccc3[nH]c(C(F)(F)F)cc23)C1` [EP-0043870, N-((3R,4S)-3-((S)-3-fluoropyrrolidin-1-yl)chroman-4-yl)-2-(trifluoromethyl)-1H-pyrrolo[3,2-c]pyridin-4-amine], the EC50 in data set [1] is 120 nM. In addition, in data set [2], the “Mito-Safety Index” value is reported as 67.5.

Take `FC(F)(F)c1cc2c(N[C@H]3c4ccccc4OC[C@@H]3N3CCCC3)nccc2[nH]1` [EP-0043873, N-((3R,4S)-3-(pyrrolidin-1-yl)chroman-4-yl)-2-(trifluoromethyl)-1H-pyrrolo[3,2-c]pyridin-4-amine]: the EC50 in data set [1] was determined as 130 nM. The “Mito-Safety Index” value in data set [2] is on record as 71.5.

As for `FC(F)(F)c1cc2c(N[C@H]3c4ccccc4OC[C@@H]3N3CCOC4(CC4)C3)nccc2[nH]1` [EP-0043895, N-((3R,4S)-3-(4-oxa-7-azaspiro[2.5]octan-7-yl)chroman-4-yl)-2-(trifluoromethyl)-1H-pyrrolo[3,2-c]pyridin-4-amine], the EC50 in data set [1] was determined as 170 nM. Further, in data set [2], the “Mito-Safety Index” value is reported as 94.7.

`COC1CN([C@H]2COc3ccccc3[C@@H]2Nc2nccc3[nH]c(C(F)(F)F)cc23)C1` [EP-0043896, N-((3R,4S)-3-(3-methoxyazetidin-1-yl)chroman-4-yl)-2-(trifluoromethyl)-1H-pyrrolo[3,2-c]pyridin-4-amine]: the EC50 in data set [1] worked out at 150 nM. Further, the “Mito-Safety Index” value in data set [2] worked out at 126.7.

In the case of `FC1CN([C@H]2COc3ccccc3[C@@H]2Nc2nccc3[nH]c(C(F)(F)F)cc23)C1` [EP-0043908, N-((3R,4S)-3-(3-fluoroazetidin-1-yl)chroman-4-yl)-2-(trifluoromethyl)-1H-pyrrolo[3,2-c]pyridin-4-amine], in data set [1], the EC50 turned out to be 200 nM. In data set [2], the “Mito-Safety Index” value was found to be 125.0.

As for `Fc1ccc2c(c1)OC[C@H](N1CCC3(CC3)C1)[C@H]2Nc1ncnc2[nH]c(C(F)(F)F)cc12` [EP-0043913, N-((3R,4S)-7-fluoro-3-(5-azaspiro[2.4]heptan-5-yl)chroman-4-yl)-6-(trifluoromethyl)-7H-pyrrolo[2,3-d]pyrimidin-4-amine], the 50% effective concentration (EC50) in data set [1] turned out to be 370 nM. The “Mito-Safety Index” value in data set [2] was 67.6.

For `C[C@@H]1CN([C@H]2COc3cc(F)ccc3[C@@H]2Nc2ncnc3[nH]c(C4CCC4)cc23)CCO1` [EP-0044008, 6-cyclobutyl-N-((3R,4S)-7-fluoro-3-((R)-2-methylmorpholino)chroman-4-yl)-7H-pyrrolo[2,3-d]pyrimidin-4-amine], the EC50 in data set [1] was 10 nM. The “Mito-Safety Index” value in data set [2] is recorded as 2500.0.
